The target of one data set is T1, hPPARalpha (Homo sapiens, UniProt Q07869).
T1 construct: Gal4-hPPARα(LBD); Gal4 (fusion partner); expressed in transfected cells; host or cells: COS-7 (monkey kidney)
T1 sequence (Q07869 239-466 limits assumed): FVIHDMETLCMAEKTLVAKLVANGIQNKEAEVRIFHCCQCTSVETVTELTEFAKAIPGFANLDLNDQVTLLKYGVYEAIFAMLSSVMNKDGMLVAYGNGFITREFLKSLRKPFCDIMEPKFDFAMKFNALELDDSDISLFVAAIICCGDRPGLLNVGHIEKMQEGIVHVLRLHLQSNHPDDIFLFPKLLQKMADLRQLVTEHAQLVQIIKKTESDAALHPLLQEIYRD
As to the kind of experiment: Gal4-hPPARalpha transactivation assay in COS-7 cells (luciferase). In kind it is cell-based. Conditions: for EC50: Gal4-hPPARα(LBD) transactivation. A digest of the protocol: (§1)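 COS-7 cells transiently co-transfected with Gal4-hPPAR chimeras and a Gal4(RE)_TkpGL3 luciferase reporter (1/50 ratio) were seeded at 20,000 cells/well for 4 h, then treated in 2% lipid-free synthetic serum medium (0.1% DMSO). EC50 and Hill slope came from fitted luciferase curves. Emax is relative to fenofibrate 100 μM (α), rosiglitazone 10 μM (γ) or GW501516 1 μM (δ).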

The target of the next data set is T2, hPPARgamma (Homo sapiens, UniProt P37231).
T2 construct: Gal4-hPPARγ(LBD); Gal4 (fusion partner); expressed in transfected cells; host or cells: COS-7 (monkey kidney)
T2 sequence (P37231 238-503 limits assumed): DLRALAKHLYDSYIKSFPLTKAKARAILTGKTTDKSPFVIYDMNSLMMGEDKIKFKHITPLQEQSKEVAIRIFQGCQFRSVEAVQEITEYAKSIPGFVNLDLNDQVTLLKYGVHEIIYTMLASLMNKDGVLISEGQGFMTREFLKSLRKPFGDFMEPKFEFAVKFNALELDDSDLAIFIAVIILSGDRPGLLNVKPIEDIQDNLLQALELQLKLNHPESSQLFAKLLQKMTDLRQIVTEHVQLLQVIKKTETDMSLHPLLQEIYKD
As to the kind of experiment: Gal4-hPPARgamma transactivation assay in COS-7 cells (luciferase). The format is cell-based. The following applies: for EC50: Gal4-hPPARγ(LBD) transactivation. A digest of the protocol:
as §1

The target of the next data set is T3, hPPARdelta (Homo sapiens, UniProt Q03181).
T3 construct: Gal4-hPPARδ(LBD); Gal4 (fusion partner); expressed in transfected cells; host or cells: COS-7 (monkey kidney)
T3 sequence (Q03181 211-439 limits assumed): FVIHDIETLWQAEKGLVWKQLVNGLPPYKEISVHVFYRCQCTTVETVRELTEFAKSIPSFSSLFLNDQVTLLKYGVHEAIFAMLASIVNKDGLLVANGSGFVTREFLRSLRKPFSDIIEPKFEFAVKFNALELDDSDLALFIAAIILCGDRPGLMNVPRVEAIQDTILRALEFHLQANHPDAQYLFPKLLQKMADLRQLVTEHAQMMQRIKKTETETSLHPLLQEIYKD
As to the kind of experiment: Gal4-hPPARdelta transactivation assay in COS-7 cells (luciferase). The format is cell-based. The following applies: for EC50: Gal4-hPPARδ(LBD) transactivation. The method in brief:
as §1

Structures are written as SMILES. Where a name gives a salt, the structure may show the parent alone.

Broadly, the EC50 is the midpoint of the concentration-response curve. Low readings indicate higher potency in that assay, high ones lower potency in that assay. The melting point is the temperature, or range, at which the solid turns liquid. Take `COC(c1ccc(Br)cc1)C1CC1c1cc(C)c(OC(C)(C)C(=O)O)c(C)c1` (racemic) [Cpd 1-1, 2-(4-(2-(methoxy(4-bromophenyl)methyl)cyclopropyl)-2,6-dimethylphenoxy)-2-methylpropanoic acid]: the melting point came to 133 °C. Besides, on hPPARalpha (COS-7, maximal relative activation vs reference, read-out: Gal4-hPPARα(LBD) TOP (% ref)), the Emax stood at 44%. Besides, on hPPARalpha, the EC50 worked out at 239 nM. For the same molecule, at hPPARgamma (COS-7, maximal relative activation vs reference, read-out: Gal4-hPPARγ(LBD) TOP (% ref)), the Emax came to 68%. Also, at hPPARgamma, the EC50 was 44 nM. Further, the Emax on hPPARdelta (COS-7, maximal relative activation vs reference, read-out: Gal4-hPPARδ(LBD) TOP (% ref)) stood at 84%. Also, a half-maximal effect on hPPARdelta (EC50) was put at 40 nM.
Molecule `COC(c1ccc(OC(F)(F)F)cc1)C1CC1c1cc(C)c(OC(C)(C)C(=O)O)c(C)c1` (single isomer, unassigned) (as salt: TFA) [Cpd 14-1-1, 2-(4-(2-(methoxy(4-(trifluoromethoxy)phenyl)methyl)cyclopropyl)-2,6-dimethylphenoxy)-2-methylpropanoic acid] showed a melting point of 155 to 156 °C.
Molecule `COC(c1ccc(OC(F)(F)F)cc1)C1CC1c1cc(C)c(OC(C)(C)C(=O)O)c(C)c1` (single isomer, unassigned) [Cpd 14-2, 2-(4-(2-(methoxy(4-(trifluoromethoxy)phenyl)methyl)cyclopropyl)-2,6-dimethylphenoxy)-2-methylpropanoic acid] came in with a melting point of 190 to 194 °C. The same molecule showed an EC50 at hPPARalpha of 41 nM. For the same molecule, the EC50 on hPPARgamma stood at 17 nM. In addition, the midpoint of the response on hPPARdelta, the EC50, lay at 30 nM.

Source of the values: patent US9115073B2, “1,3-diphenylpropane derivatives, preparations and uses thereof” (GENFIT, priority 2011, dated 2015).
